Data reported in patent publication US8664379B2, “Fused heterocyclic compounds as ion channel modulators” (Gilead Sciences, Inc., priority 2008, dated 2014).

Target: wild-type human cardiac sodium channel, hNav1.5 (late sodium current) (Homo sapiens, UniProt Q14524)
Experiment: Late INa screening assay (PatchXpress whole cell patch clamp)
Format: cell-based
Details: HEK293 cells expressing hNav1.5, late INa generated with 10 μM Tefluthrin (some experiments 50 nM ATX II); for inhibition at 10 µM: HEK293, 10 μM test compound, read-out: Late INa % blk (10 μM test cmpd); for Late INa % blk (1 μM test cmpd): 1 μM test compound
Protocol: The late sodium current (Late INa) and peak sodium current (Peak INa) assays were performed on an automated electrophysiology platform, PatchXpress 7000A (MDS Analytical Technologies, Sunnyvale, Calif.), which uses the whole cell patch clamp technique to measure currents through the cell membrane of up to 16 cells at a time. The assay used an HEK293 (human embryonic kidney) cell line heterologously expressing the wild-type human cardiac sodium channel, hNav1.5, purchased from Millipore (Billerica, Mass.). No beta subunits were coexpressed with the Na channel alpha subunit. Cells were maintained with standard tissue culture procedures and stable channel expression was maintained with 400 μg/ml Geneticin in the culture medium. Cells isolated for use on PatchXpress were incubated for 5 minutes in Versene 1× and then for 2 minutes in 0.0125% Trypsin-EDTA (both at 37° C.) to ensure that 80-90% of the cells are single and not part of a cell cluster. Experiments were carried out at 24-27° C.
For both the Late INa and Peak INa assays, series resistance compensation was set to 50% and whole-cell compensation was performed automatically. Currents were low-pass filtered at 10 kHz and digitized at 31.25 kHz. Currents through open sodium channels were automatically recorded and stored in the DataXpress2 database (MDS Analytical Technologies, Sunnyvale, Calif.). Analysis was performed using DataXpress2 analysis software and data are compiled in Excel.
Compound stocks were routinely made in glass vials to 10 mM in dimethyl sulfoxide (DMSO). In some cases, when compounds were not soluble in DMSO, they were made in 100% ethanol. Stocks were sonicated as necessary. The extracellular solution for screening Late INa was composed of: 140 mM NaCl, 4 mM KCl, 1.8 mM CaCl2, 0.75 mM MgCl2, and 5 mM HEPES with pH adjusted to 7.4 using NaOH. The extracellular solution for screening Peak INa was composed of: 20 mM NaCl, 120 mM N-methyl-D glucamine, 4 mM KCl, 1.8 mM CaCl2, 0.75 mM MgCl2, and 5 mM HEPES with pH adjusted to 7.4 using HCl. The intracellular solution used to perfuse the inside of the cells for both the Late INa and Peak INa assays contains: 120 mM CsF, 20 mM CsCl, 5 mM EGTA, 5 mM HEPES and pH adjusted to 7.4 with CsOH. Compounds were diluted in extracellular solution to 10 μM in glass vials and then transferred to glass well plates before robotic addition to the cells. The 0Na extracellular solution used at the end of each experiment for the Late INa and Peak INa assays to measure baseline current contained: 140 mM N-methyl-D-glucamine; 4 mM KCl; 1.8 mM CaCl2; 0.75 mM MgCl2; 5 mM HEPES and pH was adjusted to 7.4 with HCl.
For the Late INa assay, sodium channels were activated every 10 seconds (0.1 Hz) by depolarizing the cell membrane to −20 mV for 250 milliseconds (ms) from a holding potential of −120 mV. In response to a −20 mV voltage step, typical Nav1.5 sodium currents activated rapidly to a peak negative current and then inactivated nearly completely within 3-4 ms.
All compounds were tested to determine their activity in blocking the late sodium current. Late INa current is generated by adding 10 μM Tefluthrin (pyrethroid) to the extracellular solution while recording Na currents. For some experiments, 50 nM ATX II (sea anemone toxin), another late INa activator, was used to generate the late component. Both activators generate late components that are large enough that block of the late component by compounds can be measured easily. For the purposes of the screening, late INa is defined as the mean current between 225 ms and 250 ms after stepping to −20 mV to activate Na channels. After establishing the whole cell recording configuration, late INa activators were added to each well 4 times over a 16-17 minute period so that the late component of the Na current reached a stable value. Compounds were then added (typically at 10 μM), in the presence of late INa activator, with 3 additions over the course of 7 or 8 minutes. […]

wild-type human cardiac sodium channel, hNav1.5 (late sodium current), sequence (Q14524 whole entry): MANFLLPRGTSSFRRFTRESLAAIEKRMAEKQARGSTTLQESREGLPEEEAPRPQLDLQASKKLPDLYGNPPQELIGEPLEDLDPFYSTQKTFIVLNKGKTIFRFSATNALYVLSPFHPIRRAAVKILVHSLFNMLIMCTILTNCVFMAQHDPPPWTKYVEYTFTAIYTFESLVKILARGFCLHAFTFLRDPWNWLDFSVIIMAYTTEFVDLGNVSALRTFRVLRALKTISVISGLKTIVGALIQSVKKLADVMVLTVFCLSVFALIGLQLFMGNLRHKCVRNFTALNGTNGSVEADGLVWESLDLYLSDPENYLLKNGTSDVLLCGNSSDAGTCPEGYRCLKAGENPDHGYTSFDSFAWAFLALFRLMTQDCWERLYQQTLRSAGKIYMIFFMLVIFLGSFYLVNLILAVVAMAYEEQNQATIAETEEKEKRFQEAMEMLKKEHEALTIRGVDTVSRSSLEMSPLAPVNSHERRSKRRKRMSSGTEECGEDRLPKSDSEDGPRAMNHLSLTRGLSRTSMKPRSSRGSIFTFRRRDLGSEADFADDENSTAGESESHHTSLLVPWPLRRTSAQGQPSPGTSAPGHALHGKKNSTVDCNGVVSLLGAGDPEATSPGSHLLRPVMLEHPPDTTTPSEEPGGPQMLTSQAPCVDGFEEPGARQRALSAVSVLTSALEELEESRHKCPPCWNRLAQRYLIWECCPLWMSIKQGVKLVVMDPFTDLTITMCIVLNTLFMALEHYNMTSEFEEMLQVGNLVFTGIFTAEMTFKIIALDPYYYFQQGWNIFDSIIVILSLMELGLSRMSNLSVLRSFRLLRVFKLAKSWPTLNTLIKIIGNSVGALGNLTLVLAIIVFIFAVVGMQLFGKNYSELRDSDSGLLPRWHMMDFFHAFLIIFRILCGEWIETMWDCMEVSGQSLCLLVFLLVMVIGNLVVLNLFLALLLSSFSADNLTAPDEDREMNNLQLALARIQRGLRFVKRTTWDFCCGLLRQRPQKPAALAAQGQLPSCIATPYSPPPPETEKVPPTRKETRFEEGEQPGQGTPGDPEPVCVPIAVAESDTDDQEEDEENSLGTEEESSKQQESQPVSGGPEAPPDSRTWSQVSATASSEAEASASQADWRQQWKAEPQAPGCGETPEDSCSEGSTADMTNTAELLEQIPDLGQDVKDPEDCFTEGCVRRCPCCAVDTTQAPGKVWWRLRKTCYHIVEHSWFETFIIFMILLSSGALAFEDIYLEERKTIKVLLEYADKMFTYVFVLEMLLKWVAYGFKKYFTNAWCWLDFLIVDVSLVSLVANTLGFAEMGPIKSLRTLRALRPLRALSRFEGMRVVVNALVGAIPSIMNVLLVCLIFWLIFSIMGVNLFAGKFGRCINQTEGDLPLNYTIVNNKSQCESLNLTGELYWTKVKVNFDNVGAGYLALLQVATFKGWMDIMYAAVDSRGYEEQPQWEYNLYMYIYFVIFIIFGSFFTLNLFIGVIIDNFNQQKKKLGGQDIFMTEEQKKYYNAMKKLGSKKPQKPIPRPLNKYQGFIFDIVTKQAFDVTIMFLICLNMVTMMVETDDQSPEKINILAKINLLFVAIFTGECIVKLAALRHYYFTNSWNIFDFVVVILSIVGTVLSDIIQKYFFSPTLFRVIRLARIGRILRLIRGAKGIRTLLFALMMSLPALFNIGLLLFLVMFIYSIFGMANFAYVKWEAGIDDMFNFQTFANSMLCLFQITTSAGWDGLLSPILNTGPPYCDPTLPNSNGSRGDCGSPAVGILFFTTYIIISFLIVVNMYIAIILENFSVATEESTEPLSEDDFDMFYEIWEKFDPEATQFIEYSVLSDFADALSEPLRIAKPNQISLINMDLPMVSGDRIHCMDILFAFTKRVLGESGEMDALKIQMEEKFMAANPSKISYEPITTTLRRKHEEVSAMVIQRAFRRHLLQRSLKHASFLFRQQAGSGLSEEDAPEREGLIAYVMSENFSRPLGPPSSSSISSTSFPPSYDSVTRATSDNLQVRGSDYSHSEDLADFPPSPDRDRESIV

| SMILES | inhibition at 10 µM [%] | Late INa % blk (1 μM test cmpd) [%] | Late INa % blk (10 μM test cmpd) (10 μM test compound) [%] |
| --- | --- | --- | --- |
| NC(=O)c1ccc(-c2ccc3c(c2)CCC(=O)N3)cc1 [Compound 2, 4-(2-oxo-1,2,3,4-tetrahydroquinolin-6-yl)benzamide] | 16 |  |  |
| O=C1CCc2cc(-c3ccc(F)cc3)ccc2N1 [Compound 3, 6-(4-fluorophenyl)-3,4-dihydroquinolin-2(1H)-one] | 29 |  |  |
| N#Cc1ccc(-c2ccc3c(c2)CCC(=O)N3)cc1 [Compound 5, 4-(2-oxo-1,2,3,4-tetrahydroquinolin-6-yl)benzonitrile] | 30 |  |  |
| NC(=O)c1cccc(-c2ccc3c(c2)CCC(=O)N3)c1 [Compound 6, 3-(2-oxo-1,2,3,4-tetrahydroquinolin-6-yl)benzamide] | 23 |  |  |
| O=C1CCc2cc(-c3ccccc3F)ccc2N1 [Compound 7, 6-(2-fluorophenyl)-3,4-dihydroquinolin-2(1H)-one] | 52 |  |  |
| CC(=O)c1cccc(-c2ccc3c(c2)CCC(=O)N3)c1 [Compound 8, 6-(3-acetylphenyl)-3,4-dihydroquinolin-2(1H)-one] | 22 |  |  |
| O=C1CCc2cc(-c3ccc(C(F)(F)F)cc3)ccc2N1 [Compound 9, 6-[4-(trifluoromethyl)phenyl]-3,4-dihydroquinolin-2(1H)-one] | 62 |  |  |
| O=C1CCc2cc(-c3ccc(Cl)c(C(F)(F)F)c3)ccc2N1 [Compound 10, 6-[4-chloro-3-(trifluoromethyl)phenyl]-3,4-dihydroquinolin-2(1H)-one] | 66 | 40 |  |
| O=C1CCc2cc(-c3ccc(F)cc3F)ccc2N1 [Compound 11, 6-(2,4-difluorophenyl)-3,4-dihydroquinolin-2(1H)-one] | 54 |  |  |
| N#Cc1cc(-c2ccc3c(c2)CCC(=O)N3)ccc1F [Compound 12, 2-fluoro-5-(2-oxo-1,2,3,4-tetrahydroquinolin-6-yl)benzonitrile] | 27 |  |  |
| O=C1CCc2cc(-c3cccc(C(F)(F)F)c3)ccc2N1 [Compound 13, 6-[3-(trifluoromethyl)phenyl]-3,4-dihydroquinolin-2(1H)-one] | 70 |  |  |
| O=C1CCc2cc(-c3ccc(F)cc3F)ccc2N1CCO [Compound 16, 6-(2,4-difluorophenyl)-1-(2-hydroxyethyl)-3,4-dihydroquinolin-2(1H)-one] | 24 |  |  |
| O=C1CCc2cc(-c3ccc(C(F)(F)F)c(F)c3)ccc2N1 [Compound 19, 6-(3-fluoro-4-(trifluoromethyl)phenyl)-3,4-dihydroquinolin-2(1H)-one] | 31 |  |  |
| CCOC(=O)CN1C(=O)CCc2cc(-c3ccc(F)cc3F)ccc21 [Compound 22, ethyl [6-(2,4-difluorophenyl)-2-oxo-3,4-dihydroquinolin-1(2H)-yl]acetate] | 67 |  |  |
| CCOC(=O)CN1C(=O)CCc2cc(-c3ccc(F)c(F)c3)ccc21 [Compound 23, ethyl [6-(3,4-difluorophenyl)-2-oxo-3,4-dihydroquinolin-1(2H)-yl]acetate] | 33 |  |  |
| CCOC(=O)CN1C(=O)CCc2cc(-c3cccc(OC(F)(F)F)c3)ccc21 [Compound 24, ethyl {2-oxo-6-[3-(trifluoromethoxy)phenyl]-3,4-dihydroquinolin-1(2H)-yl}acetate] | 74 | 44 |  |

| SMILES | inhibition at 10 µM [%] | Late INa % blk (1 μM test cmpd) [%] | Late INa % blk (10 μM test cmpd) (10 μM test compound) [%] |
| --- | --- | --- | --- |
| O=C1CCc2cc(-c3ccc(F)cc3F)ccc2N1CC(F)(F)F [Compound 28, 6-(2,4-difluorophenyl)-1-(2,2,2-trifluoroethyl)-3,4-dihydroquinolin-2(1H)-one] | 18 |  |  |
| CC(C)(C)OC(=O)CN1C(=O)CCc2cc(-c3ccc(F)cc3F)ccc21 [Compound 30, tert-butyl [6-(2,4-difluorophenyl)-2-oxo-3,4-dihydroquinolin-1(2H)-yl]acetate] | 86 | 47.9 |  |
| NC(=O)CN1C(=O)CCc2cc(-c3ccc(OC(F)(F)F)cc3)ccc21 [Compound 31, 2-{2-oxo-6-[4-(trifluoromethoxy)phenyl]-3,4-dihydroquinolin-1(2H)-yl}acetamide] | 26 |  |  |
| O=C(CN1C(=O)CCc2cc(-c3ccc(C(F)(F)F)cc3)ccc21)N1CCOCC1 [Compound 32, 1-[2-(morpholin-4-yl)-2-oxoethyl]-6-[4-(trifluoromethyl)phenyl]-3,4-dihydroquinolin-2(1H)-one] | 27 |  |  |
| CC(C)(C)OC(=O)CN1C(=O)CCc2cc(-c3ccc(F)cc3)ccc21 [Compound 33, tert-butyl [6-(4-fluorophenyl)-2-oxo-3,4-dihydroquinolin-1(2H)-yl]acetate] | 77 | 38.1 |  |
| CC(C)(C)c1nc(CN2C(=O)CCc3cc(-c4ccc(F)cc4)ccc32)no1 [Compound 35, 1-[(5-tert-butyl-1,2,4-oxadiazol-3-yl)methyl]-6-(4-fluorophenyl)-3,4-dihydroquinolin-2(1H)-one] | 69 |  |  |
| O=C1CCc2cc(-c3ccc(OC(F)(F)F)cc3)ccc2N1Cc1cccnc1 [Compound 37, 1-(pyridin-3-ylmethyl)-6-[4-(trifluoromethoxy)phenyl]-3,4-dihydroquinolin-2(1H)-one] | 19 |  |  |
| O=C1CCc2cc(-c3ccc(Oc4ccccc4)cc3)ccc2N1 [Compound 38, 6-(4-phenoxyphenyl)-3,4-dihydroquinolin-2(1H)-one] | 53 |  |  |
| CC(C)(C)OC(=O)CN1C(=O)CCc2cc(-c3ccc(Cl)cc3)ccc21 [Compound 40, tert-butyl [6-(4-chlorophenyl)-2-oxo-3,4-dihydroquinolin-1(2H)-yl]acetate] | 64 |  |  |
| N#Cc1cccc(-c2ccc3c(c2)CCC(=O)N3)c1 [Compound 41, 3-(2-oxo-1,2,3,4-tetrahydroquinolin-6-yl)benzonitrile] | 12 |  |  |
| CC1(C)CC(=O)Nc2ccc(-c3ccc(C(F)(F)F)cc3)cc21 [Compound 42, 4,4-dimethyl-6-[4-(trifluoromethyl)phenyl]-3,4-dihydroquinolin-2(1H)-one] | 19 |  |  |
| CC(C)(C)OC(=O)CN1C(=O)CCc2cc(-c3ccc(C(F)(F)F)cc3)ccc21 [Compound 45, tert-butyl {2-oxo-6-[4-(trifluoromethyl)phenyl]-3,4-dihydroquinolin-1(2H)-yl}acetate] |  |  | 64 |
| CC(C)(C)OC(=O)CN1C(=O)CCc2cc(-c3ccc(OC(F)(F)F)cc3)ccc21 [Compound 50, tert-butyl {2-oxo-6-[4-(trifluoromethoxy)phenyl]-3,4-dihydroquinolin-1(2H)-yl}acetate] | 76 |  |  |
| O=C(O)CN1C(=O)CCc2cc(-c3ccc(OC(F)(F)F)cc3)ccc21 [Compound 51, {2-oxo-6-[4-(trifluoromethoxy)phenyl]-3,4-dihydroquinolin-1(2H)-yl}acetic acid] | 14 |  |  |
| CC(C)(C)OC(=O)CN1C(=O)CCc2cc(-c3cccc(Cl)c3)ccc21 [Compound 53, tert-butyl [6-(3-chlorophenyl)-2-oxo-3,4-dihydroquinolin-1(2H)-yl]acetate] | 73 |  |  |
| CCOC(=O)CN1C(=O)CCc2cc(-c3ccc(C(F)(F)F)cc3)ccc21 [Compound 54, ethyl {2-oxo-6-[4-(trifluoromethyl)phenyl]-3,4-dihydroquinolin-1(2H)-yl}acetate] | 13 |  |  |
